Laboratory results from the NIST ThermoML archive (doi:10.1021/je500380x).

Assay: mn = molality of the nth substance listed, in mol/kg
Conditions: 100 kPa, Liquid; for electrical conductivity: Alternating current cell with electrodes; for viscosity: Falling or rolling sphere viscometry; for mass density: Vibrating tube method

CCC(=O)OCCN1CCNCC1 [2-(piperazin-1-yl)ethyl propionate] + CCO
Conditions | electrical conductivity [S/m] | mass density [kg/m3] | viscosity [mPa·s]
293.15 K, m1 = 0.05 | 0.018 | 792.31 | 1.231
293.15 K, m1 = 0.1 | 0.0284 | 795.01 | 1.291
293.15 K, m1 = 0.1985 | 0.0443 | 800.36 | 1.369
293.15 K, m1 = 0.3005 | 0.0571 | 806.02 | 1.473
293.15 K, m1 = 0.4001 | 0.0671 | 811.4 | 1.577
293.15 K, m1 = 0.5007 | 0.0769 | 817.08 | 1.711
293.15 K, m1 = 0.5998 | 0.0851 | 822.5 | 1.845
293.15 K, m1 = 0.7002 | 0.092 | 828.2 | 2
293.15 K, m1 = 0.8 | 0.0988 | 833.89 | 2.198
293.15 K, m1 = 0.8957 | 0.1048 | 839.61 | 2.363
293.15 K, m1 = 1 | 0.1105 | 845.48 | 2.582
293.15 K, m1 = 1.198 | 0.119 | 857.06 | 3.081
293.15 K, m1 = 1.401 | 0.126 | 869.49 | 3.774
293.15 K, m1 = 1.602 | 0.13 | 881.43 | 4.697
293.15 K, m1 = 1.8 | 0.1314 | 893.69 | 5.93
293.15 K, m1 = 2.001 | 0.1308 | 906.93 | 7.934
293.15 K, m1 = 2.198 | 0.127 | 918.83 | 9.733
293.15 K, m1 = 2.397 | 0.121 | 931.94 | 12.86
293.15 K, m1 = 2.597 | 0.1137 | 945.08 | 18.8
293.15 K, m1 = 2.796 | 0.106 | 958.17 | 25.23
293.15 K, m1 = 3.006 | 0.0951 | 972.39 | 37.45
298.15 K, m1 = 0.05 | 0.0186 | 788.01 | 1.12
298.15 K, m1 = 0.1 | 0.0296 | 790.73 | 1.173
298.15 K, m1 = 0.1985 | 0.0465 | 796.08 | 1.241
298.15 K, m1 = 0.3005 | 0.06 | 801.71 | 1.333
298.15 K, m1 = 0.4001 | 0.071 | 807.14 | 1.424
298.15 K, m1 = 0.5007 | 0.0816 | 812.78 | 1.541
298.15 K, m1 = 0.5998 | 0.0904 | 818.26 | 1.658
298.15 K, m1 = 0.7002 | 0.0977 | 823.96 | 1.793
298.15 K, m1 = 0.8 | 0.106 | 829.67 | 1.967
298.15 K, m1 = 0.8957 | 0.1123 | 835.39 | 2.11
298.15 K, m1 = 1 | 0.119 | 841.3 | 2.298
298.15 K, m1 = 1.198 | 0.129 | 852.92 | 2.729
298.15 K, m1 = 1.401 | 0.137 | 865.42 | 3.319
298.15 K, m1 = 1.602 | 0.1415 | 877.35 | 4.106
298.15 K, m1 = 1.8 | 0.1443 | 889.66 | 5.146
298.15 K, m1 = 2.001 | 0.1447 | 902.95 | 6.811
298.15 K, m1 = 2.198 | 0.1423 | 914.88 | 8.295
298.15 K, m1 = 2.397 | 0.138 | 928.01 | 10.83
298.15 K, m1 = 2.597 | 0.1304 | 941.19 | 15.64
298.15 K, m1 = 2.796 | 0.1237 | 954.36 | 20.7
298.15 K, m1 = 3.006 | 0.1136 | 968.58 | 30.28
303.15 K, m1 = 0.05 | 0.0191 | 783.69 | 1.021
303.15 K, m1 = 0.1 | 0.0305 | 786.41 | 1.069
303.15 K, m1 = 0.1985 | 0.0483 | 791.76 | 1.2
303.15 K, m1 = 0.3005 | 0.0627 | 797.4 | 1.209
303.15 K, m1 = 0.4001 | 0.0745 | 802.85 | 1.289
303.15 K, m1 = 0.5007 | 0.0858 | 808.5 | 1.392
303.15 K, m1 = 0.5998 | 0.0954 | 813.99 | 1.495
303.15 K, m1 = 0.7002 | 0.1036 | 819.7 | 1.613
303.15 K, m1 = 0.8 | 0.1125 | 825.43 | 1.766
303.15 K, m1 = 0.8957 | 0.119 | 831.17 | 1.89
303.15 K, m1 = 1 | 0.127 | 837.09 | 2.054
303.15 K, m1 = 1.198 | 0.139 | 848.73 | 2.427
303.15 K, m1 = 1.401 | 0.149 | 861.28 | 2.935
303.15 K, m1 = 1.602 | 0.155 | 873.24 | 3.606
303.15 K, m1 = 1.8 | 0.16 | 885.6 | 4.489
303.15 K, m1 = 2.001 | 0.1614 | 898.93 | 5.886
303.15 K, m1 = 2.198 | 0.159 | 910.89 | 7.117
303.15 K, m1 = 2.397 | 0.155 | 924.07 | 9.203
303.15 K, m1 = 2.597 | 0.147 | 937.29 | 13.25
303.15 K, m1 = 2.796 | 0.14 | 950.5 | 17.19
303.15 K, m1 = 3.006 | 0.1307 | 964.74 | 24.65
308.15 K, m1 = 0.05 | 0.0194 | – | 0.934
308.15 K, m1 = 0.1 | 0.0313 | – | 0.976
308.15 K, m1 = 0.1985 | 0.0499 | – | 1.028
308.15 K, m1 = 0.3005 | 0.0652 | – | 1.1
308.15 K, m1 = 0.4001 | 0.0776 | – | 1.171
308.15 K, m1 = 0.5007 | 0.0899 | – | 1.261
308.15 K, m1 = 0.5998 | 0.1004 | – | 1.352
308.15 K, m1 = 0.7002 | 0.109 | – | 1.456
308.15 K, m1 = 0.8 | 0.119 | – | 1.59
308.15 K, m1 = 0.8957 | 0.126 | – | 1.698
308.15 K, m1 = 1 | 0.135 | – | –
308.15 K, m1 = 1.198 | 0.148 | – | –
308.15 K, m1 = 1.401 | 0.1609 | – | –
308.15 K, m1 = 1.602 | 0.169 | – | –
308.15 K, m1 = 1.8 | 0.1747 | – | –
308.15 K, m1 = 2.001 | 0.178 | – | –
308.15 K, m1 = 2.198 | 0.177 | – | –
308.15 K, m1 = 2.397 | 0.173 | – | –
308.15 K, m1 = 2.597 | 0.165 | – | –
308.15 K, m1 = 2.796 | 0.158 | – | –
308.15 K, m1 = 3.006 | 0.148 | – | –
